Laboratory results from the supplement of paper PMC10307832.

How the values were obtained:
Assay in all cases: relative viability (nuclei count vs DMSO), 5 days (fraction); higher = more cells survive
QS11 + Pemetrexed = compound: C1CC2=C(C1)C=C(C=C2)OC3=NC(=C4C(=N3)N(C=N4)CC5=CC=C(C=C5)C6=CC=CC=C6)N[C@@H](CC7=CC=CC=C7)CO [QS11] + Nc1nc2[nH]cc(CCc3ccc(C(=O)N[C@@H](CCC(=O)O)C(=O)O)cc3)c2c(=O)[nH]1 [Pemetrexed] (partner 0.2 µM)
Outline: (§1)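 Relative viability was taken as the ratio of nuclei in treated wells to nuclei in vehicle wells. Lung cancer cell lines in 1536-well plates received compounds by pin tool one day after seeding, either one drug alone or a fixed anchor-drug dose plus five library-drug doses (not always all listed) in √10 steps. Nuclei were counted on 4× images after 5 days of treatment, and values are medians of duplicate plates.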

QS11 + Vorinostat = compound: C1CC2=C(C1)C=C(C=C2)OC3=NC(=C4C(=N3)N(C=N4)CC5=CC=C(C=C5)C6=CC=CC=C6)N[C@@H](CC7=CC=CC=C7)CO [QS11] + O=C(CCCCCCC(=O)Nc1ccccc1)NO [Vorinostat] (partner 1 µM)
Outline: as §1

[1] = compound: C[As](C)SC[C@H](NC(=O)CC[C@H](N)C(=O)O)C(=O)NCC(=O)O [Darinaparsin] + Cc1cc(Nc2cc(N3CCN(C)CC3)nc(Sc3ccc(NC(=O)C4CC4)cc3)n2)n[nH]1 [Tozasertib] (partner 0.1 µM)
Outline: as §1

Darinaparsin + Olaparib = compound: C[As](C)SC[C@H](NC(=O)CC[C@H](N)C(=O)O)C(=O)NCC(=O)O [Darinaparsin] + O=C(c1cc(Cc2n[nH]c(=O)c3ccccc23)ccc1F)N1CCN(C(=O)C2CC2)CC1 [Olaparib] (partner 8 µM)
Outline: as §1

Cell Line | relative viability (QS11 + Pemetrexed; first compound 0.08 µM) | relative viability (QS11 + Pemetrexed; first compound 0.253 µM) | relative viability (QS11 + Pemetrexed; first compound 0.8 µM) | relative viability (QS11 + Pemetrexed; first compound 2.53 µM) | relative viability (QS11 + Pemetrexed; first compound 8 µM) | relative viability (QS11 + Vorinostat; first compound 0.08 µM) | relative viability (QS11 + Vorinostat; first compound 0.253 µM) | relative viability (QS11 + Vorinostat; first compound 0.8 µM) | relative viability (QS11 + Vorinostat; first compound 2.53 µM) | relative viability (QS11 + Vorinostat; first compound 8 µM) | relative viability ([1]; first compound 0.08 µM) | relative viability ([1]; first compound 0.8 µM) | relative viability ([1]; first compound 2.53 µM) | relative viability ([1]; first compound 8 µM) | relative viability (Darinaparsin + Olaparib; first compound 0.08 µM) | relative viability (Darinaparsin + Olaparib; first compound 0.8 µM) | relative viability (Darinaparsin + Olaparib; first compound 2.53 µM) | relative viability (Darinaparsin + Olaparib; first compound 8 µM)
UMC-11 | 0.87 | 0.89 | 0.716 | 0.97 | 0.993 | 0.385 | 0.373 | 0.462 | 0.37 | 0.459 | 0.215 | 0.211 | 0.211 | 0.188 | 0.494 | 0.347 | 0.536 | 0.346
LCLC-103H | 0.454 | 0.475 | – | 0.463 | 0.446 | 0.724 | 0.783 | – | 0.799 | 0.734 | 0.491 | 0.517 | 0.507 | 0.441 | 0.882 | 0.698 | 0.742 | 0.861
LU99A | 0.169 | 0.172 | 0.173 | 0.169 | 0.168 | 0.432 | 0.438 | 0.51 | 0.515 | 0.464 | 0.262 | 0.295 | 0.256 | 0.243 | 0.275 | 0.252 | 0.125 | 0.246
LXF-289 | 0.873 | 0.931 | 0.761 | 0.9 | 0.876 | 0.772 | 0.828 | 0.724 | 0.719 | 0.637 | 0.204 | 0.195 | 0.204 | 0.229 | 1.46 | 1.09 | 0.841 | 1.03
EPLC-272H | 0.306 | 0.366 | 0.344 | 0.313 | 0.315 | 0.371 | 0.55 | 0.442 | 0.479 | 0.276 | – | 0.308 | 0.229 | 0.277 | 0.659 | 0.958 | 0.514 | 0.615
LOU-NH91 | 0.347 | 0.369 | 0.351 | 0.457 | 0.306 | 0.896 | 0.858 | 0.871 | 0.936 | 0.916 | 0.743 | 0.647 | 0.666 | 0.761 | 0.932 | 0.869 | 0.912 | 0.964
HCC-44 | 0.72 | 0.581 | 0.416 | 0.675 | 0.659 | 1.14 | 1.05 | 0.557 | 0.98 | 1.01 | 1.21 | 0.927 | 0.769 | 0.87 | 1.06 | 0.993 | 0.942 | 1.03
NCI-H1651 | 0.575 | 0.616 | 0.582 | 0.598 | 0.584 | 0.555 | 0.518 | 0.527 | 0.571 | 0.564 | 0.911 | 0.739 | 0.633 | 0.918 | 0.192 | 0.18 | 0.18 | 0.159
NCI-H1915 | 0.583 | 0.538 | – | 0.567 | 0.529 | 0.522 | 0.528 | – | 0.467 | 0.391 | 0.502 | 0.479 | 0.427 | 0.435 | 0.259 | 0.22 | 0.269 | 0.272
NCI-H2009 | 1.08 | 1.06 | 1.01 | 0.978 | 0.985 | 0.757 | 0.699 | 0.635 | 0.707 | 0.603 | 0.927 | 0.682 | 0.731 | 0.884 | 0.715 | 0.769 | 0.628 | 0.72
COR-L 105 | 1.14 | 0.96 | 1.04 | 0.955 | 0.942 | 0.838 | 1.03 | 0.665 | 0.794 | 0.716 | 0.316 | 0.369 | 0.315 | 0.32 | 0.747 | 0.695 | 0.758 | 0.69
ABC-1 | – | – | – | – | – | 0.886 | 0.834 | 1.02 | 0.931 | 1.11 | 0.169 | 0.205 | 0.2 | 0.192 | 1.14 | 0.99 | 1.02 | 1.08
NCI-H1793 | 0.725 | 0.777 | 1.11 | 1.1 | 0.85 | 0.734 | 0.528 | 0.808 | 0.88 | 0.702 | 0.344 | 0.305 | 0.278 | 0.385 | 1 | 0.832 | – | 1.03
NCI-H1792 | – | 0.603 | 0.925 | 0.629 | 0.514 | – | – | – | – | – | – | – | – | – | 0.412 | 0.496 | – | 0.368
NCI-H1703 | – | – | – | – | – | – | – | – | – | – | – | – | – | – | 0.5 | 0.587 | 0.389 | 0.516
Calu-6 | – | – | – | – | – | – | – | – | – | – | – | – | – | – | 0.592 | 0.59 | 0.594 | 0.556
IA-LM | – | – | – | – | – | 0.926 | 1.13 | 0.674 | 0.806 | 0.88 | – | – | – | – | 0.93 | 0.936 | 0.982 | 0.884
A549 | – | – | – | – | – | – | – | – | – | – | – | – | – | – | 0.416 | 0.337 | 0.31 | 0.471
EBC-1 | – | – | – | – | – | – | – | – | – | – | – | – | – | – | 0.811 | 0.731 | 0.603 | 0.511
NCI-H1623 | – | – | – | – | – | – | – | – | – | – | 0.467 | 0.404 | 0.416 | 0.399 | – | – | – | –
NCI-H727 | – | – | – | – | – | 1.28 | 1.16 | 1.29 | 1.07 | 1.37 | 0.731 | 0.552 | 0.699 | 0.599 | 0.388 | 0.561 | 0.726 | 0.612
NCI-H1299 | – | – | – | – | – | – | – | – | – | – | – | – | – | – | 1.02 | 0.928 | 0.98 | 0.981
NCI-H1563 | 0.806 | 0.838 | 0.722 | 0.881 | 0.886 | – | – | – | – | – | – | – | – | – | – | – | – | –
